Source: ChEMBL document CHEMBL1146493, “Effect of phenolic glycosides on Agrobacterium tumefaciens virH gene induction and plant transformation” (J Nat Prod, 2004)
Calls of active or inactive are those of the source. No cut-off for these calls is given here.

Assays:
Nicotiana tabacum [1] = experiment: Increase in genetic transformation in tobacco leaf explant co-cultured with Agrobacterium tumefaciens A348 assessed as callus formation at 100 uM after 4 weeks; assay type: functional
Nicotiana tabacum [2] = experiment: Increase in genetic transformation in tobacco leaf explant co-cultured with Agrobacterium tumefaciens A348 assessed as buds formation at 100 uM after 4 weeks; assay type: functional
Nicotiana tabacum [3] = experiment: Increase in transformation frequency of tobacco leaf explant co-cultured with Agrobacterium tumefaciens A348 assessed as explant survival at 100 uM after 21 days; assay type: functional
[4] = tested on: Agrobacterium tumefaciens; experiment: Induction of virH gene expression in Agrobacterium tumefaciens A348 overexpressing pSM219 virH::lacZ assessed as beta-galactosidase activity at 0.5 mM after 18 hrs relative to acetosyringone; assay type: functional
Nicotiana tabacum [5] = experiment: Increase in transformation frequency of tobacco leaf explant co-cultured with Agrobacterium tumefaciens A348 assessed as transgenic callus formation at 100 uM after 21 days; assay type: functional
[6] = tested on: Agrobacterium tumefaciens; experiment: Inhibition of virH gene expression in Agrobacterium tumefaciens A348 overexpressing pSM219 virH::lacZ assessed as beta-galactosidase activity at 100 uM after 18 hrs; assay type: functional, organism-based
[7] = tested on: Agrobacterium tumefaciens; experiment: Induction of virH gene expression in Agrobacterium tumefaciens A348 overexpressing pSM219 virH::lacZ assessed as beta-galactosidase activity at 1 mM after 18 hrs relative to acetosyringone; assay type: functional
[8] = tested on: Agrobacterium tumefaciens; experiment: Induction of virH gene expression in Agrobacterium tumefaciens A348 overexpressing pSM219 virH::lacZ assessed as beta-galactosidase activity at 100 uM after 18 hrs; assay type: functional, organism-based
[9] = tested on: Agrobacterium tumefaciens; experiment: Decrease in virH gene expression in Agrobacterium tumefaciens A348 overexpressing pSM219 virH::lacZ assessed as beta-galactosidase activity at >=250 uM after 18 hrs; assay type: functional, organism-based
[10] = Toxicity in tobacco leaf explant co-cultured with Agrobacterium tumefaciens A348 assessed as detrimental genetic transformation at 500 uM after 4 weeks; conditions: nicotiana tabacum, 672 h
[11] = tested on: Agrobacterium tumefaciens; experiment: Toxicity in Agrobacterium tumefaciens A348 overexpressing pSM219 virH::lacZ assessed as […] at 5 mM after 18 hrs; assay type: organism-based; conditions: in vivo, 5000 µM
[12] = Toxicity in tobacco leaf explant co-cultured with Agrobacterium tumefaciens A348 assessed as mortality at 2 mM within 3 to 4 days; conditions: nicotiana tabacum, 2000 µM
[13] = Toxicity in tobacco leaf explant co-cultured with Agrobacterium tumefaciens A348 assessed as mortality at 500 uM after 7 days; conditions: nicotiana tabacum, 168 h
[14] = tested on: Agrobacterium tumefaciens; experiment: Induction of virH gene expression in Agrobacterium tumefaciens A348 overexpressing pSM219 virH::lacZ assessed as beta-galactosidase activity at 10 mM after 18 hrs relative to acetosyringone; assay type: functional, organism-based

Compound	Activity (Nicotiana tabacum [1])	Activity (Nicotiana tabacum [2])	Activity (Nicotiana tabacum [3])	Activity (Nicotiana tabacum [5])	Activity [6]	other results
COc1cc(C(=O)/C=C/c2ccc(O)cc2)cc(OC)c1O	Active	Active	–	–	–	–
COc1cc(C(C)=O)cc(OC)c1O[C@H]1O[C@H](CO)[C@@H](O)[C@H](O)[C@H]1O	Active	Active	Active	Active	Active	Activity [4]: 25%
COc1cc(C(C)=O)cc(OC)c1O[C@@H]1OC[C@@H](O)[C@H](O)[C@H]1O	Active	Active	Active	Active	Active	Activity [4]: 25%; Activity [7]: 50%
COc1cc(C(C)=O)ccc1O[C@@H]1OC[C@@H](O)[C@H](O)[C@H]1O	–	–	–	–	Active	–
CC(=O)c1ccc(O[C@@H]2OC[C@@H](O)[C@H](O)[C@H]2O)cc1	–	–	–	–	Active	–
COc1cc(/C=C/C(C)=O)cc(OC)c1O[C@@H]1O[C@H](CO)[C@@H](O)[C@H](O)[C@H]1O	Active	Active	–	–	Active	–
COc1cc(/C=C/C(C)=O)cc(OC)c1O	Active	Active	–	–	–	Activity [8]: Active
COc1cc(C(=O)/C=C/c2ccc(O)cc2)cc(OC)c1O[C@@H]1O[C@H](CO)[C@@H](O)[C@H](O)[C@H]1O	Active	Active	–	–	–	–
COc1cc(C(C)=O)cc(OC)c1O [ACETOSYRINGONE]	Active	Active	Active	Active	–	Activity [9]: Active; Activity [10]: Toxic; Activity [11]: Toxic; Activity [12]: Toxic; Activity [8]: Active; Activity [13]: Toxic
COc1cc(C(C)=O)cc(OC)c1O[C@@H]1O[C@H](CO)[C@@H](O)[C@H](O)[C@H]1O [GLUCOACETOSYRINGONE]	Active	Active	Active	Active	Active	Activity [10]: Non-toxic; Activity [12]: Non-toxic; Activity [14]: Active
